Source: patent EP0745595A1, “3-(3-Aryloxyphenyl)-1-(substituted methyl)-s-triazine-2,4,6-oxo or thiotrione herbicidal agents” (American Cyanamid Company, priority 1995, dated 1996)

How the values were obtained:
Type in all cases: in vivo
GALIUM APARINE = test: Postemergence herbicidal evaluation, GALAP (Galium); design: key to GALAP rating / Herbicidal effect rating, GALAP / GALAP: 0-9 visual rating scale vs untreated control
In short: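 In this postemergence greenhouse test, two-week-old Galium aparine seedlings grown in jiffy flats received a 40 psi spray of compound in acetone/water (50/50) with 0.5% TWEEN®20 surfactant. After four to five weeks, stand, vigor, malformation, size, chlorosis and overall appearance were compared with untreated controls on a 0-9 scale, averaging multiple tests.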

[1] = system: SETARIA VIRIDIS, (L) BEAU; test: Postemergence herbicidal evaluation, SETVI (Foxtail, Green); design: key to SETVI rating / Herbicidal effect rating, SETVI / SETVI: 0-9 visual rating scale vs untreated control
In short: (§1)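 Postemergence foliar spray at approximately 0.125–0.500 kg/ha onto two-week seedlings; greenhouse hold, then 0–9 visual injury rating after 4–5 weeks.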

[2] = system: AMBROSIA ARTEMISIIFOLIA, L.; test: Postemergence herbicidal evaluation, AMBEL (Ragweed, Common)
In short: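 Postemergence herbicidal activity on AMBEL (common ragweed) was assessed on two-week-old seedlings grown in jiffy flats. Treatment solutions of 50/50 acetone/water with 0.5% TWEEN®20 surfactant were sprayed at 40 psi. After four to five weeks in the greenhouse, plants were scored 0-9 against a control for stand, vigor, malformation, size, chlorosis and overall appearance, with multiple tests averaged.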

[3] = system: ORYZA SATIVA, L. TEBONNET; test: Rice tolerance to post-transplant applications under flooded paddy conditions, ORYSAT (Rice, Tebonnet); conditions: post-transplant rice, 3-4 weeks after treatment
In short: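 Visual 0-9 rating against untreated control (stand, vigor, malformation, size, chlorosis, overall appearance), taken 3-4 weeks after treatment. Flooded silt loam, water at 1.5-3 cm; two 10-day-old seedlings per pot; compound applied to flooded soil surface 3 days post-transplant at ~0.5-0.063 kg/ha.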

[…], PRESL. = Preemergence weed control under flooded paddy conditions, MOOVA (Monochoria); conditions: 0.500 kg/ha, preemergence, 3-4 weeks after treatment
In short: (§2)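 Visual 0-9 score (stand, vigor, malformation, size, chlorosis, appearance vs untreated control) taken 3-4 wk after treatment. Test compounds were added into flood water (1.5-3 cm over silt loam) as 50/50 v/v aqueous/acetone, equivalent to about 0.5-0.063 kg/ha a.i.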

[4] = system: ECHINOCHLOA CRUS-GALLI, (L) BEAU; test: Postemergence herbicidal evaluation, ECHCG (Barnyardgrass); design: key to ECHCG rating / Herbicidal effect rating, ECHCG / ECHCG: 0-9 visual rating scale vs untreated control
In short: as §1

CYPERUS IRIA = test: Preemergence weed control under flooded paddy conditions, CYPIR (Rice Flatsedge); conditions: 0.500 kg/ha, preemergence, 3-4 weeks after treatment
In short: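 This preemergence test mimicked flooded paddy conditions: rice flatsedge propagules were sown in the upper 0.5 cm of silt loam in undrained 32 oz. containers (10.5 cm diameter), with water held 1.5 to 3 cm over the soil. After normal greenhouse care, plants were scored 0-9 for stand, vigor, malformation, size, chlorosis and appearance relative to controls.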

ZEA MAYS L. = test: Preemergence herbicidal evaluation, ZEAMX (Corn, Field); conditions: rated four to five weeks after treatment
In short: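 Preemergence herbicidal activity on field corn: seeds in potting soil were sown atop roughly one inch of soil in separate pint cups, treated, and grown under standard greenhouse care. Four to five weeks post-treatment, stand, vigor, malformation, size, chlorosis and overall appearance were compared with a control and scored 0-9.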

IPOMOEA SPP. = test: Postemergence herbicidal evaluation, IPOSS (Morningglory spp.)
In short: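 In this greenhouse postemergence herbicide test on Ipomoea spp. (morningglory), compounds in 50/50 acetone/water with 0.5% TWEEN®20 were sprayed at 40 psi onto seedlings about two weeks old grown in jiffy flats. After four to five weeks, injury was scored on a 0-9 scale covering stand, vigor, malformation, size, chlorosis and overall appearance versus control, with repeat tests averaged.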

[5] = system: CYPERUS SEROTINUS, ROTTB.; test: Preemergence weed control under flooded paddy conditions, CYPSE (Flatsedge); conditions: 0.500 kg/ha, preemergence, 3-4 weeks after treatment
In short: as §2

SAGITTARIA PYGMAEA, L. = test: Preemergence weed control under flooded paddy conditions, SAGPY (Arrowhead (Pygmaea)); conditions: preemergence, 3-4 weeks after treatment
In short: as §2

[6] = system: ORYZA SATIVA, L. TEBONNET; test: Preemergence herbicidal evaluation, ORYSAT (Rice, Tebonnet); conditions: rated four to five weeks after treatment
Source text: (§3) Results of herbicide evaluation are expressed on a rating scale (0-9). The scale is based upon a visual observation of plant stand, vigor, malformation, size, chlorosis and overall plant appearance as compared with a control.
(§4) The preemergence herbicidal activity of the test compounds of the present invention is exemplified by the following tests in which the seeds of a variety of monocotyledonous and dicotyledonous plants are separately mixed with potting soil and planted on top of approximately one inch of soil in separate pint cups. […] The treated cups are then placed on greenhouse benches, watered and cared for in accordance with conventional greenhouse procedures. From four to five weeks after treatment, the tests are terminated and each cup is examined and rated according to the rating system provided in Example 40.
(§5) The compounds evaluated are reported by compound number given in Example 40.

[7] = system: GLYCINE MAX(L) MERR. CV. WILLIAMS; test: Preemergence herbicidal evaluation, GLXMAW (Soybean, Williams); conditions: rated four to five weeks after treatment
In short: (§6)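 Injury scored visually (0–9; stand, vigor, malformation, size, chlorosis) versus untreated control, four to five weeks post-treatment. Application: aqueous acetone spray onto freshly planted soil cups, equivalent to about 0.125 to 0.50 kg/ha, plants then kept under standard greenhouse care.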

[8] = system: ABUTILON THEOPHRASTI, MEDIC.; test: Postemergence herbicidal evaluation, ABUTH (Velvetleaf)
In short: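 This postemergence herbicide test used two-week-old velvetleaf seedlings grown in jiffy flats. Each compound was sprayed at 40 psi as a dispersion in 50/50 acetone/water with 0.5% TWEEN®20 surfactant. Plants then received routine greenhouse care. After four to five weeks, injury was scored visually on a 0-9 scale against a control, and replicate tests were averaged.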

CASSIA OBTUSIFOLIA, L. = test: Postemergence herbicidal evaluation, CASOB (Sicklepod); design: key to CASOB rating / Herbicidal effect rating, CASOB / CASOB: 0-9 visual rating scale vs untreated control
In short: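 Ratings (0-9) reflect visual stand, vigor, malformation, size and chlorosis compared with untreated plants, assessed 4-5 weeks after postemergence spraying. Treatment was applied to roughly two-week-old seedlings at about 0.125-0.500 kg/ha in acetone/water with 0.5% Tween 20; replicate tests were averaged.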

[9] = system: ECHINOCHLOA ORYZOIDES (ARD.)FRITSCH; test: Preemergence weed control under flooded paddy conditions, ECHORC (Watergrass (Calif.)); conditions: 0.500 kg/ha, preemergence, 3-4 weeks after treatment
In short: as §2

[10] = system: ECHINOCHLOA CRUS-GALLI, (L) BEAU; test: Preemergence herbicidal evaluation, ECHCG (Barnyardgrass); conditions: rated four to five weeks after treatment
In short: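 In this preemergence herbicide test, cups holding seeds of ECHCG sown in potting soil over roughly one inch of soil were treated and then grown under conventional greenhouse care. Tests were ended four to five weeks after treatment, and injury was scored 0-9 from stand, vigor, malformation, size, chlorosis and overall appearance relative to a control.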

[11] = system: ABUTILON THEOPHRASTI, MEDIC.; test: Preemergence herbicidal evaluation, ABUTH (Velvetleaf); conditions: rated four to five weeks after treatment
Source text: as §3, §4, §5

[12] = system: AMBROSIA ARTEMISIIFOLIA, L.; test: Preemergence herbicidal evaluation, AMBEL (Ragweed, Common); conditions: rated four to five weeks after treatment
Source text: as §3, §4, §5

[13] = system: TRITICUM AESTIVUM, CV. APOLLO; test: Preemergence herbicidal evaluation, TRZAWO (Wheat, Winter, CV. APOLLO); conditions: rated four to five weeks after treatment
Source text: as §3, §4, §5

CHENOPODIUM ALBUM, L. = test: Preemergence herbicidal evaluation, CHEAL (Lambsquarters, Common); conditions: rated four to five weeks after treatment
In short: as §6

COC(=O)Cn1c(=O)n(C)c(=O)n(-c2cc(Oc3ccc(C#N)cc3)ccc2[N+](=O)[O-])c1=O [Compound 32, Methyl 3-[5-(p-cyanophenoxy)-2-nitrophenyl]-tetrahydro-5-methyl-2,4,6-trioxo-s-triazine-1(2H)-acetate] gave a GALAP rating (GALIUM APARINE; Rate 0.125 kg/ha) of 0.0, a GALAP rating (GALIUM APARINE; Rate 0.250 kg/ha) of 0.0 and a GALAP rating (GALIUM APARINE; Rate 0.500 kg/ha) of 0.0. The SETVI rating ([1]; Rate 0.125 kg/ha) was 0.0, the SETVI rating ([1]; Rate 0.250 kg/ha) was 0.0 and the SETVI rating ([1]; Rate 0.500 kg/ha) was 0.0. The AMBEL rating ([2]; Rate 0.125 kg/ha) was 0.0, the AMBEL rating ([2]; Rate 0.250 kg/ha) was 0.0 and the AMBEL rating ([2]; Rate 0.500 kg/ha) was 0.0. The “Herbicidal effect rating, ORYSAT” value ([3]; 0.500 kg/ha) was 0.0, the “Herbicidal effect rating, MOOVA” value ([…], PRESL.) was 0.0 and the ECHCG rating ([4]; Rate 0.125 kg/ha) was 0.0. For the same compound, the ECHCG rating ([4]; Rate 0.250 kg/ha) was 0.0, the ECHCG rating ([4]; Rate 0.500 kg/ha) was 0.0 and the “Herbicidal effect rating, CYPIR” value (CYPERUS IRIA) was 0.0. For the same compound, the ZEAMX herbicidal rating (ZEA MAYS L.; Rate 0.125 kg/ha) was 0.0, the ZEAMX herbicidal rating (ZEA MAYS L.; Rate 0.250 kg/ha) was 0.0 and the ZEAMX herbicidal rating (ZEA MAYS L.; Rate 0.500 kg/ha) was 0.0. The IPOSS rating (IPOMOEA SPP.; Rate 0.125 kg/ha) was 0.0, the IPOSS rating (IPOMOEA SPP.; Rate 0.250 kg/ha) was 0.0 and the IPOSS rating (IPOMOEA SPP.; Rate 0.500 kg/ha) was 0.0. For the same compound, the “Herbicidal effect rating, CYPSE” value [5] was 0.0, the “Herbicidal effect rating, SAGPY” value (SAGITTARIA PYGMAEA, L.; 0.500 kg/ha) was 0.0 and the ORYSAT herbicidal rating ([6]; Rate 0.125 kg/ha) was 2.0. It also gave an ORYSAT herbicidal rating ([6]; Rate 0.250 kg/ha) of 2.0, an ORYSAT herbicidal rating ([6]; Rate 0.500 kg/ha) of 2.0 and a GLXMAW herbicidal rating ([7]; Rate 0.125 kg/ha) of 0.0. It also gave a GLXMAW herbicidal rating ([7]; Rate 0.250 kg/ha) of 0.0, a GLXMAW herbicidal rating ([7]; Rate 0.500 kg/ha) of 0.0 and an ABUTH rating ([8]; Rate 0.125 kg/ha) of 0.0. It also gave an ABUTH rating ([8]; Rate 0.250 kg/ha) of 0.0, an ABUTH rating ([8]; Rate 0.500 kg/ha) of 0.0 and a CASOB rating (CASSIA OBTUSIFOLIA, L.; Rate 0.125 kg/ha) of 0.0. For the same compound, the CASOB rating (CASSIA OBTUSIFOLIA, L.; Rate 0.250 kg/ha) was 0.0, the CASOB rating (CASSIA OBTUSIFOLIA, L.; Rate 0.500 kg/ha) was 0.0 and the “Herbicidal effect rating, ECHORC” value [9] was 0.0.

Compound Cn1c(=O)n(CC(=O)OC(C)(C)C)c(=O)n(-c2cc(Oc3c(F)cc(C(F)(F)F)cc3Cl)ccc2F)c1=O [Compound 41, Tert-butyl 3-{[5-(2-chloro-α,α,α,6-tetra-fluoro-p-tolyl)oxy]-2-fluorophenyl}tetra-hydro-5-methyl-2,4,6-trioxo-s-triazine-1(2H)-acetate] has an ECHCG herbicidal rating ([10]; Rate 0.125 kg/ha) of 0.0, an ECHCG herbicidal rating ([10]; Rate 0.250 kg/ha) of 0.0 and an ECHCG herbicidal rating ([10]; Rate 0.500 kg/ha) of 0.0. For the same compound, the “Herbicidal effect rating, ORYSAT” value ([3]; 0.063 kg/ha) was 0.0, the “Herbicidal effect rating, ORYSAT” value ([3]; 0.125 kg/ha) was 0.0 and the “Herbicidal effect rating, ORYSAT” value ([3]; 0.250 kg/ha) was 0.0. For the same compound, the “Herbicidal effect rating, ORYSAT” value ([3]; 0.500 kg/ha) was 0.0, the ABUTH herbicidal rating ([11]; Rate 0.125 kg/ha) was 0.0 and the ABUTH herbicidal rating ([11]; Rate 0.250 kg/ha) was 0.0. The ABUTH herbicidal rating ([11]; Rate 0.500 kg/ha) was 0.0, the “Herbicidal effect rating, SAGPY” value (SAGITTARIA PYGMAEA, L.; 0.063 kg/ha) was 0.0 and the “Herbicidal effect rating, SAGPY” value (SAGITTARIA PYGMAEA, L.; 0.125 kg/ha) was 0.0. The “Herbicidal effect rating, SAGPY” value (SAGITTARIA PYGMAEA, L.; 0.250 kg/ha) was 0.0, the “Herbicidal effect rating, SAGPY” value (SAGITTARIA PYGMAEA, L.; 0.500 kg/ha) was 0.0 and the AMBEL herbicidal rating ([12]; Rate 0.125 kg/ha) was 0.0. It also gave an AMBEL herbicidal rating ([12]; Rate 0.250 kg/ha) of 0.0, an AMBEL herbicidal rating ([12]; Rate 0.500 kg/ha) of 0.0 and a TRZAWO herbicidal rating ([13]; Rate 0.125 kg/ha) of 0.0. It also gave a TRZAWO herbicidal rating ([13]; Rate 0.250 kg/ha) of 0.0, a TRZAWO herbicidal rating ([13]; Rate 0.500 kg/ha) of 0.0 and a CHEAL herbicidal rating (CHENOPODIUM ALBUM, L.; Rate 0.125 kg/ha) of 9.0. For the same compound, the CHEAL herbicidal rating (CHENOPODIUM ALBUM, L.; Rate 0.250 kg/ha) was 9.0 and the CHEAL herbicidal rating (CHENOPODIUM ALBUM, L.; Rate 0.500 kg/ha) was 9.0.
